The compounds below were run against recombinant human 15-PGDH (Homo sapiens (Human), UniProt P15428) (assay: 15-PGDH enzyme inhibition test). Conditions: 4 nM recombinant human 15-PGDH, 30 μM PGE2, 1 mM NAD+, fluorescence 340/440 nm after 60 min.
Assay type: biochemical
Method: 15-PGDH Enzyme Inhibition Test
Test compounds and 4 nM recombinant human 15-PGDH (R&D systems) in 50 mM Tris-HCl (pH 8.0) containing 0.01% TWEEN 20 (Sigma) and 0.01% bovine gamma globulin (Sigma) were put into 384 Flat Bottom Black plates (Corning, 3820) and allowed to stand for 12 minutes at room temperature. Then, 30 μM PGE2 (Cayman chemical) and 1 mM NAD^+ (Sigma) were added to start reaction. Sixty minutes after the start of reaction, signals were measured at an excitation wavelength of 340 nm and a fluorescence emission wavelength of 440 nm using Synergy 2 (BioTeck). The intensity of the fluorescent signal obtained when an assay buffer was added in place of the test compounds and NAD^+ was defined as 100% and that obtained with the addition of NAD^+ was defined as 0%.

recombinant human 15-PGDH, sequence (P15428 whole entry): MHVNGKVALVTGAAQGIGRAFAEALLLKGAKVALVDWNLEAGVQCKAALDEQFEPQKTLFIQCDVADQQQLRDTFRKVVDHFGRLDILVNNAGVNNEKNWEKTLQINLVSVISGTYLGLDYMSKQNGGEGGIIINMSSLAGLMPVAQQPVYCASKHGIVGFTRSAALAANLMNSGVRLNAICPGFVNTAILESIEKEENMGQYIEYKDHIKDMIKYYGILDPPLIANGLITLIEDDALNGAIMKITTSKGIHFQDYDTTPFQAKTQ

| IC50 [nM] | SMILES |
| --- | --- |
| < 3 | CN1Cc2cc(-c3cccc4cc(C(=O)N5CCC(F)(F)CC5)ccc34)ccc2C1=O [compound 1] |
| < 3 | C[C@H]1CCCN(C(=O)c2ccc3c(N4CCc5ncccc5C4)cccc3c2)C1 [compound 2] |
| < 3 | Cn1nc2n(c1=O)CCN(c1cccc3cc(C(=O)N4CCC[C@H](C(F)(F)F)C4)ccc13)C2 [compound 3] |
| < 3 | O=C(c1ccc2c(N3CCc4ncccc4C3)cccc2c1)N1CCC[C@H](C(F)(F)F)C1 [compound 4] |
| < 3 | O=C(c1ccc2c(N3CCc4c(cc[nH]c4=O)C3)cccc2c1)N1CCC(F)(F)CC1 [compound 5] |
| < 3 | O=C(c1ccc2c(N3CCn4c(nn(CC(F)F)c4=O)C3)cccc2c1)N1CCCC2CC21 (stereo not shown) [compound 6] |
| ≥ 10 | O=C1NC(=O)N2CCN(c3cccc4cc(C(=O)N5CCCCC5)ccc34)CC12 (stereo not shown) [compound 7] |
| < 3 | CN1Cc2cc(-c3cccc4cc(C(=O)N5CCCC(C)(C)C5)ccc34)ccc2C1=O [compound 8] |
| < 3 | CN1Cc2cc(-c3coc4cc(C(=O)N5CCCCC5)ccc34)ccc2C1=O [compound 9] |
| < 3 | CC1c2cc(-c3cccc4cc(C(=O)N5CCC(F)(F)CC5)ccc34)ccc2C(=O)N1C (stereo not shown) [compound 10] |
| 3 to 10 | O=C(c1ccc2c(N3CCN4C(=O)CCC4C3)cccc2c1)N1CCCCC1 (stereo not shown) [compound 12] |
| 3 to 10 | Cc1c(-c2cccc3cc(C(=O)N4CCC(F)(F)CC4)ccc23)ccc2ncccc12 [compound 13] |
| < 3 | CN1Cc2cc(-c3cccc4cc(C(=O)N5CCCC5)ccc34)cnc2C1=O [compound 14] |
| < 3 | Cn1ccc2cc(-c3cccc4cc(C(=O)N5CCC(F)(F)CC5)ccc34)cnc2c1=O [compound 15] |
| 3 to 10 | Cc1ccc2cc(C(=O)N3CCC(F)(F)CC3)ccc2c1-c1cnc2c(c1)CN(C)C2=O [compound 16] |
| < 3 | Cn1ncc2cc(-c3cccc4cc(C(=O)N5CCC(F)(F)CC5)ccc34)cnc2c1=O [compound 17] |
| < 3 | O=C(c1ccc2c(-c3ccn4c(=O)ccnc4c3)cccc2c1)N1CCC(F)(F)CC1 [compound 18] |
| < 3 | O=C(c1ccc2c(N3CCn4c(nn(CC(F)F)c4=O)C3)cccc2c1)N1CCCCC1 [compound 19] |
| 3 to 10 | Cn1nc2n(c1=O)CCN(c1ncc(F)c3cc(C(=O)N4CCC(F)(F)CC4)ccc13)C2 [compound 20] |
| < 3 | Cc1nc2n(n1)CCN(c1cccc3cc(C(=O)N4CCCCC4)ccc13)C2 [compound 21] |

| IC50 [nM] | SMILES |
| --- | --- |
| 3 to 10 | COc1nccc2c1CCN(c1cccc3cc(C(=O)N4CCCCC4)ccc13)C2 [compound 22] |
| < 3 | O=C(c1ccc2c(N3CCc4c(cc[nH]c4=O)C3)cccc2c1)N1CCC[C@@H](F)C1 [compound 23] |
| < 3 | O=C1NCc2cc(-c3cccc4cc(C(=O)N5CCC(F)(F)CC5)ccc34)ccc21 [compound 24] |
| < 3 | CN1Cc2cc(-c3cccc4cc(C(=O)N5CCC[C@H](C(F)(F)F)C5)ccc34)ccc2C1=O [compound 25] |
| < 3 | O=C(c1ccc2c(-c3ccn4c(=O)[nH]nc4c3)cccc2c1)N1CCC(F)(F)CC1 [compound 26] |
| < 3 | CN1C(=O)c2ccc(-c3cccc4cc(C(=O)N5CCC(F)(F)CC5)ccc34)cc2C1(C)C [compound 27] |
| 3 to 10 | CC1CC2CN(c3cccc4cc(C(=O)N5CCCCC5)ccc34)CCN2C1=O (stereo not shown) [compound 28] |
| < 3 | CN1Cc2cc(-c3cccc4cc(C(=O)N5CCCCC5)cnc34)ccc2C1=O [compound 29] |
| < 3 | O=C(c1ccc2c(-c3ccc4c(c3)CN(CCO)C4=O)cccc2c1)N1CCC(F)(F)CC1 [compound 30] |
| < 3 | C[C@H]1CCCN(C(=O)c2ccc3c(-c4ccc5c(=O)[nH]ccc5c4)cccc3c2)C1 [compound 31] |
| < 3 | CN1Cc2nc(-c3cccc4cc(C(=O)N5CCC(F)(F)CC5)ccc34)ccc2C1=O [compound 32] |
| < 3 | Cn1c(=O)[nH]c(=O)c2ccc(-c3cccc4cc(C(=O)N5CCC(F)(F)CC5)ccc34)cc21 [compound 33] |
| < 3 | C[C@@H]1CCCN(C(=O)c2ccc3c(N4CCn5c(nn(C)c5=O)C4)cccc3c2)C1 [compound 34] |
| < 3 | C[C@@H]1CCCN(C(=O)c2ccc3c(N4CCc5c(cc[nH]c5=O)C4)cccc3c2)C1 [compound 35] |
| ≥ 10 | Cc1cc2ncccc2cc1-c1cccc2cc(C(=O)N3CCC(F)(F)CC3)ccc12 [compound 36] |
| < 3 | CN1Cc2cc(-c3cccc4cc(C(=O)N5CCCCC5)ccc34)ccc2C1=O [compound 37] |
| < 3 | Cn1cnc2cc(-c3cccc4cc(C(=O)N5CCC(F)(F)CC5)ccc34)ccc2c1=O [compound 38] |
| < 3 | O=C1NCc2cc(-c3cccc4cc(C(=O)N5CCC(F)(F)CC5)ccc34)ncc21 [compound 39] |
| 3 to 10 | O=C(c1ccc2c(-c3ccc4c(c3)CN(CC3CC(F)(F)C3)C4=O)cccc2c1)N1CCC(F)(F)CC1 [compound 40] |
| < 3 | NC(=O)c1ccc(-c2cccc3cc(C(=O)N4CCC(F)(F)CC4)ccc23)cc1F [compound 41] |

| IC50 [nM] | SMILES |
| --- | --- |
| < 3 | CN1Cc2cc(-c3ccnc4cc(C(=O)N5CCC(F)(F)CC5)ccc34)ccc2C1=O [compound 42] |
| < 3 | CN1Cc2cc(-c3cccc4cc(C(=O)N5CCCC5)ccc34)ccc2C1=O [compound 43] |
| < 3 | COC(=O)CN1Cc2cc(-c3cccc4cc(C(=O)N5CCC(F)(F)CC5)ccc34)ccc2C1=O [compound 44] |
| < 3 | COCn1ncc2cc(-c3cccc4cc(C(=O)N5CCC(F)(F)CC5)ccc34)ccc2c1=O [compound 45] |
| < 3 | C[C@H]1CCCN(C(=O)c2ccc3c(-c4cnc5c(=O)[nH]ccc5c4)cccc3c2)C1 [compound 46] |
| < 3 | C[C@H]1CCCN(C(=O)c2ccc3c(-c4cc5cc[nH]c(=O)c5cn4)cccc3c2)C1 [compound 47] |
| < 3 | CN1Cc2cc(-c3cccc4cc(C(=O)N5CCC(C(F)(F)F)CC5)ccc34)ccc2C1=O [compound 48] |
| < 3 | O=C(c1ccc2c(-c3ccc4c(=O)[nH]ccc4c3)c(F)ccc2c1)N1CCC(F)(F)CC1 [compound 49] |
| < 3 | O=C(c1ccc2c(N3CCc4ncccc4C3)cccc2c1)N1CCCCC1 [compound 50] |
| 3 to 10 | Cc1nc2c(o1)CCN(c1cccc3cc(C(=O)N4CCCCC4)ccc13)C2 [compound 51] |
| 3 to 10 | Cn1cc2c(n1)CCN(c1cccc3cc(C(=O)N4CCCCC4)ccc13)C2 [compound 52] |
| 3 to 10 | Cc1cc(C(N)=O)ccc1-c1cccc2cc(C(=O)N3CCC(F)(F)CC3)ccc12 [compound 53] |
| < 3 | CN1Cc2cc(-c3cccc4cc(C(=O)N5CCCC(F)(F)C5)ccc34)ccc2C1=O [compound 54] |
| < 3 | O=C(c1ccc2c(-c3ccc4c(c3)CN(CC3CC3)C4=O)cccc2c1)N1CCC(F)(F)CC1 [compound 55] |
| 3 to 10 | CNC(=O)c1ccc(-c2cccc3cc(C(=O)N4CCC(F)(F)CC4)ccc23)cc1F [compound 56] |
| < 3 | O=C(c1ccc2c(-c3cnc4c(=O)[nH]ncc4c3)cccc2c1)N1CCC(F)(F)CC1 [compound 57] |
| < 3 | C[C@@H]1CCN(C(=O)c2ccc3c(-c4ccc5c(c4)CN(C)C5=O)cccc3c2)C1 [compound 58] |
| < 3 | CN1Cc2cc(-c3c(F)ccc4cc(C(=O)N5CCC(F)(F)CC5)ccc34)ccc2C1=O [compound 59] |

Reference: patent US12304897B2, “15-PGDH inhibitors” (KYORIN PHARMACEUTICAL CO., LTD., priority 2019, dated 2025)
